From the NIST ThermoML archive (doi:10.1016/j.jct.2010.03.009)

Experiment: mn = molality of the nth substance listed, in mol/kg
Conditions: 101 kPa, Liquid; for viscosity: Capillary tube (Ostwald / Ubbelohde) method; for mass density: Vibrating tube method

NC(=O)c1ccccc1O [2-hydroxybenzamide] + C[S+](C)[O-]
Conditions | mass density [kg/m3] | viscosity [mPa·s]
293.15 K, m1 = 0.0069 | 1100.6 | 2.276
293.15 K, m1 = 0.0091 | 1100.66 | 2.279
293.15 K, m1 = 0.0114 | 1100.72 | 2.282
293.15 K, m1 = 0.0137 | 1100.78 | 2.285
293.15 K, m1 = 0.016 | 1100.83 | 2.287
293.15 K, m1 = 0.0183 | 1100.86 | 2.289
293.15 K, m1 = 0.0229 | 1100.92 | 2.294
298.15 K, m1 = 0.0069 | 1095.59 | 2.034
298.15 K, m1 = 0.0091 | 1095.64 | 2.038
298.15 K, m1 = 0.0114 | 1095.68 | 2.042
298.15 K, m1 = 0.0137 | 1095.71 | 2.045
298.15 K, m1 = 0.016 | 1095.76 | 2.048
298.15 K, m1 = 0.0183 | 1095.79 | 2.051
298.15 K, m1 = 0.0229 | 1095.8 | 2.056
303.15 K, m1 = 0.0069 | 1090.56 | 1.881
303.15 K, m1 = 0.0091 | 1090.6 | 1.884
303.15 K, m1 = 0.0114 | 1090.63 | 1.887
303.15 K, m1 = 0.0137 | 1090.66 | 1.889
303.15 K, m1 = 0.016 | 1090.69 | 1.892
303.15 K, m1 = 0.0183 | 1090.7 | 1.894
303.15 K, m1 = 0.0229 | 1090.73 | 1.899
308.15 K, m1 = 0.0069 | 1085.51 | 1.732
308.15 K, m1 = 0.0091 | 1085.56 | 1.737
308.15 K, m1 = 0.0114 | 1085.59 | 1.742
308.15 K, m1 = 0.0137 | 1085.63 | 1.747
308.15 K, m1 = 0.016 | 1085.66 | 1.752
308.15 K, m1 = 0.0183 | 1085.69 | 1.756
308.15 K, m1 = 0.0229 | 1085.72 | 1.763
310.15 K, m1 = 0.0069 | 1083.5 | 1.644
310.15 K, m1 = 0.0091 | 1083.55 | 1.645
310.15 K, m1 = 0.0114 | 1083.58 | 1.646
310.15 K, m1 = 0.0137 | 1083.6 | 1.647
310.15 K, m1 = 0.016 | 1083.62 | 1.647
310.15 K, m1 = 0.0183 | 1083.65 | 1.648
310.15 K, m1 = 0.0229 | 1083.66 | 1.649
313.15 K, m1 = 0.0069 | 1080.47 | 1.563
313.15 K, m1 = 0.0091 | 1080.52 | 1.564
313.15 K, m1 = 0.0114 | 1080.55 | 1.565
313.15 K, m1 = 0.0137 | 1080.58 | 1.566
313.15 K, m1 = 0.016 | 1080.6 | 1.567
313.15 K, m1 = 0.0183 | 1080.62 | 1.567
313.15 K, m1 = 0.0229 | 1080.64 | 1.569
